Values quoted from earlier work, collected in patent US20250099475A1, “METHODS OF TREATING HYPERTENSION BY PERIODIC SUPPRESSION OF ALDOSTERONE SYNTHASE” (Mineralys Therapeutics, Inc., priority 2022, published 2025).

Settings: in vivo; cited from earlier work

## CC(=O)S[C@@H]1CC2=CC(=O)CC[C@]2(C)[C@H]2CC[C@@]3(C)[C@@H](CC[C@@]34CCC(=O)O4)[C@H]12 [Spironolactone]
  risk of hyperkalemia: ≤ 10%
